The record followed here is ChEMBL document CHEMBL6078707, “Preferential Synaptic Type of GABA-A Receptor Ligands Enhancing Neuronal Survival and Facilitating Functional Recovery After Ischemic Stroke” (J Med Chem, 2024).

As usually defined, the Papp B→A is how fast a substance crosses the layer from the basolateral side. As a reminder, the Cmax is the highest concentration seen after dosing. Broadly, the AUC(0-t) is the area under the concentration-time curve up to a stated or last time point. Higher therefore signals more exposure. The MRT is the average time that molecules of a dose stay in the body. Usually CL/F stands for clearance divided by bioavailability, as obtained after extravascular dosing. What is called Tmax is the time at which the peak concentration occurs. A word on the clearance: it is a measure of how efficiently the substance is removed, as volume per time. A lower clearance goes with a low capacity for elimination.

Data set [1] can be described thus: Thermodynamic solubility of compound in phosphate buffer at pH 7.4 at 2 mg measured after 24 hrs by HPLC analysis. Format: physicochemical. The note with it: read-out: Therm_solubility.
A short description of data set [2]: Permeability of compound in PBS buffer at pH7.4 at 100 uM incubated for 5 hrs by UPLC-MS based PAMPA assay. The class given is ADME. As to conditions: pH 7.4, read-out: permeability. (The PAMPA barrier holds no transporters, so it reflects passive diffusion.)
A short description of data set [3]: Permeability across basolateral to apical side in MDCKII-MDR1 cells at pH 7.4. Format: ADME, cell-based, Canis lupus familiaris. The note with it: dog, MDCK-MDR1, pH 7.4.
Data set [4] can be described thus: Drug distribution in MCAO-reperfusion induced male Sprague-Dawley rat brain at 1.5 mg/kg, ip administered once daily for 3 days starting from 1.5 hrs post reperfusion by DESI mass spectrometric imaging analysis. The class given is ADME, organism-based. The note with it: in vivo, 72 h, time 3 day.
Data set [5] can be described thus: Cmax in male Sprague-Dawley rat at 5 mg/kg, ip measured after 480 mins by LC-ESI/MS-MS analysis. Format: ADME, organism-based. The note with it: in vivo.
A short description of data set [6]: Metabolic stability in human liver microsomes assessed as half-life. The class given is ADME, Microsome.
The nature of data set [7]: Terminal half-life in male Sprague-Dawley rat at 5 mg/kg, ip measured after 480 mins by LC-ESI/MS-MS analysis. The class given is ADME, organism-based. The note with it: in vivo, read-out: beta t1/2.
A short description of data set [8]: Unbound drug concentration in male Sprague-Dawley rat plasma at 3 mg/kg, ip measured after 480 mins by LC-ESI/MS-MS analysis. Format: ADME, organism-based. As to conditions: in vivo, 8 h; call rule not given here.
Data set [9] is described as follows: AUC (0 to t) in male Sprague-Dawley rat at 5 mg/kg, ip measured after 480 mins by LC-ESI/MS-MS analysis. Format: ADME, organism-based. As to conditions: in vivo.
Data set [10] in a line: Drug metabolism in human liver microsomes assessed as hydroxylation mediated metabolite formation by LCMS analysis. The class given is ADME, Microsome.
Data set [11] can be described thus: Metabolic stability in human liver microsomes assessed as intrinsic clearance. Format: ADME, Microsome. The note with it: read-out: CLH.
Data set [12] is described as follows: Cmax in male Sprague-Dawley rat brain at 3 mg/kg, iv measured after 480 mins by LC-ESI/MS-MS analysis. Format: ADME, organism-based.
Data set [13] in a line: Volume of distribution in male Sprague-Dawley rat at 5 mg/kg, ip measured after 480 mins by LC-ESI/MS-MS analysis. The class given is ADME, organism-based. As to conditions: in vivo, 8 h.
The nature of data set [14]: Cmax in male Sprague-Dawley rat brain at 3 mg/kg, ip measured after 480 mins by LC-ESI/MS-MS analysis. Format: ADME, organism-based.
A short description of data set [15]: Permeability across apical to basolateral side in MDCKII-MDR1 cells at pH 7.4. Format: ADME, cell-based, Canis lupus familiaris. The note with it: dog, MDCK-MDR1, pH 7.4; read-out: permeability.
The nature of data set [16]: AUC (0 to t) in male Sprague-Dawley rat brain at 3 mg/kg, ip measured after 480 mins by LC-ESI/MS-MS analysis. Format: ADME, organism-based. As to conditions: in vivo, 8 h.
Data set [17] can be described thus: MRT in male Sprague-Dawley rat brain at 3 mg/kg, iv measured after 480 mins by LC-ESI/MS-MS analysis. Format: ADME, organism-based.
A short description of data set [18]: MRT in male Sprague-Dawley rat plasma at 3 mg/kg, iv measured after 480 mins by LC-ESI/MS-MS analysis. Format: ADME, organism-based.
Data set [19] is described as follows: Clearance in male Sprague-Dawley rat at 5 mg/kg, ip measured after 480 mins by LC-ESI/MS-MS analysis. The class given is ADME, organism-based. The note with it: in vivo.
Data set [20] in a line: Tmax in male Sprague-Dawley rat brain at 3 mg/kg, iv measured after 480 mins by LC-ESI/MS-MS analysis. The class given is ADME, organism-based.
A short description of data set [21]: AUC (0 to t) in male Sprague-Dawley rat brain at 3 mg/kg, iv measured after 480 mins by LC-ESI/MS-MS analysis. Format: ADME, organism-based. The note with it: in vivo, 8 h.
Data set [22] in a line: Tmax in male Sprague-Dawley rat plasma at 3 mg/kg, ip measured after 480 mins by LC-ESI/MS-MS analysis. Format: ADME, organism-based.
The nature of data set [23]: AUC (0 to t) in male Sprague-Dawley rat plasma at 3 mg/kg, iv measured after 480 mins by LC-ESI/MS-MS analysis. Format: ADME, organism-based. The note with it: in vivo, 8 h.
Data set [24] can be described thus: Terminal half-life in male Sprague-Dawley rat brain at 3 mg/kg, ip measured after 480 mins by LC-ESI/MS-MS analysis. Format: ADME, organism-based. As to conditions: read-out: beta t1/2.
Data set [25] in a line: AUC (0 to t) in male Sprague-Dawley rat plasma at 3 mg/kg, ip measured after 480 mins by LC-ESI/MS-MS analysis. The class given is ADME, organism-based.
Data set [26] in a line: Terminal half-life in male Sprague-Dawley rat plasma at 3 mg/kg, iv measured after 480 mins by LC-ESI/MS-MS analysis. The note with it: read-out: beta t1/2. Format: ADME, organism-based.
Data set [27] can be described thus: MRT in male Sprague-Dawley rat plasma at 3 mg/kg, ip measured after 480 mins by LC-ESI/MS-MS analysis. The class given is ADME, organism-based.
Data set [28] can be described thus: Cmax in male Sprague-Dawley rat plasma at 3 mg/kg, ip measured after 480 mins by LC-ESI/MS-MS analysis. Format: ADME, organism-based.
Data set [29] is described as follows: Clearance in male Sprague-Dawley rat plasma at 3 mg/kg, iv measured after 480 mins by LC-ESI/MS-MS analysis. Format: ADME, organism-based.
Data set [30] can be described thus: Terminal half-life in male Sprague-Dawley rat brain at 3 mg/kg, iv measured after 480 mins by LC-ESI/MS-MS analysis. The class given is ADME, organism-based. As to conditions: read-out: beta t1/2.
Data set [31] in a line: Unbound drug concentration in male Sprague-Dawley rat brain at 3 mg/kg, ip measured after 480 mins by LC-ESI/MS-MS analysis. The note with it: in vivo, 8 h. The class given is ADME, organism-based.
A short description of data set [32]: MRT in male Sprague-Dawley rat at 5 mg/kg, ip measured after 480 mins by LC-ESI/MS-MS analysis. Format: ADME, organism-based. As to conditions: in vivo.
The nature of data set [33]: Tmax in male Sprague-Dawley rat brain at 3 mg/kg, ip measured after 480 mins by LC-ESI/MS-MS analysis. Format: ADME, organism-based.
Data set [34] can be described thus: MRT in male Sprague-Dawley rat brain at 3 mg/kg, ip measured after 480 mins by LC-ESI/MS-MS analysis. Format: ADME, organism-based.
The nature of data set [35]: Terminal half-life in male Sprague-Dawley rat plasma at 3 mg/kg, ip measured after 480 mins by LC-ESI/MS-MS analysis. The class given is ADME, organism-based. The note with it: read-out: beta t1/2.
Data set [36] is described as follows: Volume of distribution in male Sprague-Dawley rat plasma at 3 mg/kg, iv measured after 480 mins by LC-ESI/MS-MS analysis. Format: ADME, organism-based.
The nature of data set [37]: Half-life in human plasma. Format: ADME, cell-free.
Data set [38] can be described thus: Half-life in male Sprague-Dawley rat at 5 mg/kg, ip by HPLC analysis. Format: ADME, organism-based. The note with it: in vivo.

Take `Cc1ccc2nc(-c3ccc(F)cc3)c(CC(=O)N3CCOCC3)n2n1.O=C(O)C(O)C(O)C(=O)O`: the solubility thermodynamic at 24 h in data set [1] amounted to 1590 µg/mL. The Papp at 5 h, 100 µM in data set [2] stood at 9.99 ×10⁻⁶ cm/s.

As to `Cc1ccc2nc(-c3ccc(F)cc3)c(CC(=O)N3CCCC3)n2n1.O=C(O)C(O)C(O)C(=O)O`, in data set [2], the Papp at 5 h, 100 µM turned out to be 22.9 ×10⁻⁶ cm/s.

As to `COc1ccc(NC(=O)Cc2c(-c3ccc(F)cc3)nc3ccc(C)cn23)cc1.O=C(O)C(O)C(O)C(=O)O`, the Papp at 5 h, 100 µM in data set [2] was 1.03 ×10⁻⁶ cm/s.

With `COc1ccc(NC(=O)Cc2c(-c3ccc(F)cc3)nc3ccc(C)nn23)cc1.O=C(O)C(O)C(O)C(=O)O`, in data set [1], the solubility thermodynamic at 24 h amounted to 130 µg/mL. In addition, the Papp at 5 h, 100 µM in data set [2] came out at 433 ×10⁻⁶ cm/s.

Consider `Cc1ccc2nc(-c3ccc(F)cc3)c(CC(=O)Nc3ccccc3)n2c1.O=C(O)C(O)C(O)C(=O)O`, for which the Papp at 5 h, 100 µM in data set [2] came out at 5.29 ×10⁻⁶ cm/s.

`Cc1ccc2nc(-c3ccc(F)cc3)c(CC(=O)Nc3ccccc3F)n2c1.O=C(O)C(O)C(O)C(=O)O`: the Papp at 5 h, 100 µM in data set [2] amounted to 6.25 ×10⁻⁶ cm/s.

In the case of `Cc1ccc2nc(-c3ccc(F)cc3)c(CC(=O)Nc3ccc(F)cc3)n2c1.O=C(O)C(O)C(O)C(=O)O`, the Papp at 5 h, 100 µM in data set [2] amounted to 6.06 ×10⁻⁶ cm/s.

As for `Cc1ccc2nc(-c3ccc(F)cc3)c(CC(=O)N3CCSCC3)n2n1.O=C(O)C(O)C(O)C(=O)O`, in [1], the solubility thermodynamic at 24 h was determined as 320 µg/mL. The Papp at 5 h, 100 µM in data set [2] stood at 11.7 ×10⁻⁶ cm/s.

With `Cc1ccc2nc(-c3ccc(F)cc3)c(CC(=O)N(C)C)n2n1.O=C(O)C(O)C(O)C(=O)O`, the solubility thermodynamic at 24 h in data set [1] is more than 2000 µg/mL. The Papp at 5 h, 100 µM in data set [2] amounted to 9.79 ×10⁻⁶ cm/s.

Turning to `Cc1ccc2nc(-c3ccc(F)cc3)c(CC(=O)N3CCCC3)n2c1.O=C(O)C(O)C(O)C(=O)O`, the Papp B→A in data set [3] stood at 29.7 ×10⁻⁶ cm/s. Besides, the Drug uptake result in [4] is on record as “Active”. The Cmax in data set [5] came out at 2340 ng/mL; in data set [12] it was 445 ng/g; in data set [14] it was 220 ng/g; in data set [28], 4500 ng/mL. Also, the half-life in data set [6] was 176 min; in data set [7], 30.6 min; in [24], 653 min; in data set [26], 47.8 min; in data set [30], 135 min; in [35] it was 270 min. Further, in data set [8], the “Drug uptake(free)” value was 2482.75 nM. The AUC(0-t) at 8 h is 39 ng·h/mL in data set [9] and 2140 ng·h/mL in [25]. For the same compound, the Drug metabolism result in data set [10] is “metabolite_detected”. In addition, in [11], the microsomal CLint was 9.8 µL/min/mg. For the same compound, the Vd in [13] amounted to 0.104 L/kg; in [36] it was 0.383 L/kg. Also, the Papp A→B in data set [15] amounted to 55.6 ×10⁻⁶ cm/s. Also, the AUCt turned out to be 8229 ng·min/g in data set [16], 15265 ng·min/g in data set [21] and 538253 ng·min/g in data set [23]. The MRT in data set [17] is 65.5 min; in data set [18], 39.7 min; in data set [27] it was 50.9 min; in data set [32], 27.6 min; in data set [34], 102 min. Also, in data set [1], the solubility thermodynamic at 24 h amounted to 1870 µg/mL. In data set [19], this compound gave a CL/F of 2.35 mL/min. Further, the Tmax in [20], in data set [22] and in [33] was 5 min in each case. Also, the Papp at 5 h, 100 µM in [2] was 29.7 ×10⁻⁶ cm/s. Besides, the clearance in data set [29] turned out to be 5.56 mL/min/kg. For the same compound, the “Cp(f)” value in data set [31] is reported as 348.03 nM.

As for `Cn1c(=O)c2c(ncn2C)n(C)c1=O` [CAFFEINE], the Papp at 5 h, 100 µM in data set [2] was 15.2 ×10⁻⁶ cm/s.

With `CCN1CCCC1CNC(=O)c1cc(S(N)(=O)=O)ccc1OC` (stereo not given) [SULPIRIDE], the Papp at 5 h, 100 µM in data set [2] was determined as 0.016 ×10⁻⁶ cm/s.

With `Cc1ccc(-c2nc3ccc(C)cn3c2CC(=O)N(C)C)cc1.Cc1ccc(-c2nc3ccc(C)cn3c2CC(=O)N(C)C)cc1.O=C(O)C(O)C(O)C(=O)O` [ZOLPIDEM TARTRATE], the Papp at 5 h, 100 µM in data set [2] was found to be 21.6 ×10⁻⁶ cm/s.

As for `Cc1ccc(-c2nc3ccc(C)cn3c2CC(=O)N(C)C)cc1` [ZOLPIDEM], the solubility thermodynamic at 24 h in data set [1] was more than 2000 µg/mL. Also, the half-life is 120 min in [37] and 30.6 min in data set [38].
